Measurements published in patent publication US20120283216A1, “FUNGICIDAL 2-(BICYCLIC ARYLOXY)CARBOXAMIDES” (priority 2009, published 2012).

How the values were obtained:
Format in all cases: in vivo
[1] = tested on: Blumeria graminis f. sp. tritici; assay: Test A: wheat powdery mildew, preventive spray on wheat seedlings, visual disease rating; settings: preventive spray at 40 ppm, rated 8 days after inoculation; for pest or weed control at 40 ppm: Blumeria graminis, 192 h, read-out: Test A disease control rating (100 = 100% disease control, 0 = no disease control relative to the controls)
Method in brief: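 Wheat seedlings sprayed to run-off with 40 ppm compound (equivalent to 800 g/ha) in acetone/water with 250 ppm surfactant, then dusted with B. graminis spores next day. Held at 20° C. for 8 days before visual rating, 0–100 scale as % disease control relative to controls.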

Septoria tritici = assay: Test B: wheat leaf blotch, preventive spray on wheat seedlings, visual disease rating; settings: preventive spray at 40 ppm, rated after 48 h + 19 days; for pest or weed control at 40 ppm: Zymoseptoria tritici, 504 h, read-out: Test B disease control rating (100 = 100% disease control, 0 = no disease control relative to the controls)
Method in brief: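 Wheat seedlings were sprayed to run-off with 40 ppm compound (≈800 g/ha) in acetone/water with 250 ppm surfactant, then inoculated with Septoria tritici spores the next day. After 48 h saturated humidity at 20° C and 19 days in a growth chamber at 20° C, disease control was rated visually (0–100% vs controls).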

Botrytis cinerea = assay: Test C: tomato botrytis, preventive spray on tomato seedlings, visual disease rating; settings: preventive spray at 40 ppm, rated after 48 h + 3 days; for pest or weed control at 40 ppm: Botrytis cinerea, 120 h, read-out: Test C disease control rating (100 = 100% disease control, 0 = no disease control relative to the controls)
Method in brief: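 Compounds applied at 40 ppm (≈800 g/ha) in acetone/water with surfactant, sprayed to run-off on tomato seedlings. Inoculated next day with B. cinerea spores; 48 h saturated humidity at 20 °C, then 3 days at 27 °C. Visual rating as % disease control versus untreated controls.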

Structure (SMILES) | Test A disease control rating (100 = 100% disease control, 0 = no disease control relative to the controls) [1] | Test B disease control rating (100 = 100% disease control, 0 = no disease control relative to the controls) (Septoria tritici) | Test C disease control rating (100 = 100% disease control, 0 = no disease control relative to the controls) (Botrytis cinerea) | pest or weed control at 40 ppm [1] | pest or weed control at 40 ppm (Septoria tritici) | pest or weed control at 40 ppm (Botrytis cinerea)
CCC(Oc1cnc2ccc(Br)cc2c1)C(=O)NC(C)(C)CO (stereo not drawn) [Compound 39] | 21% | 0% | 33% | – | – | –
C#CCOc1ccc2ccc(OC(OC)C(=O)NC(C)(C)COC)cc2c1 (stereo not drawn) [Compound 130] | 21% | 98% | 100% | – | – | –
CCC(Oc1ccc2ccc(Br)cc2c1)C(=O)NC(C)(C)CNC=O (stereo not drawn) [Compound 11] | 21% | 99% | 100% | – | – | –
CC#Cc1ccc2ccc(OC(CC)C(=O)NC(C)(C)COC)cc2c1 (stereo not drawn) [Compound 107, N-(2-methoxy-1,1-dimethylethyl)-2-[[7-(1-propyn-1-yl)-2-naphthalenyl]oxy]butanamide] | – | – | – | 100% | 100% | 99%
CCC(Oc1cnc2ccc(Cl)cc2c1)C(=O)NC(C)(C)CO (stereo not drawn) [Compound 42] | 0% | 0% | 0% | – | – | –
COCC(Oc1cnc2ccc(Br)cc2c1)C(=O)NC(C)(C)C (stereo not drawn) [Compound 34] | 0% | 92% | 94% | – | – | –
CCOC(Oc1ccc2ccc(OC)cc2c1)C(=O)NC(C)(C)C (stereo not drawn) [Compound 114] | – | – | – | 90% | 99% | 99%
CCOc1ccc2ccc(OC(OCC)C(=O)NC(C)(C)C#N)cc2c1 (stereo not drawn) [Compound 123] | 82% | 100% | 98% | – | – | –
CCOC(Oc1ccc2ccc(OC)cc2c1)C(=O)NC(C)(C)CC (stereo not drawn) [Compound 117] | 0% | 93% | 98% | – | – | –
CCC(C)(C)NC(=O)C(OC)Oc1ccc2ccc(Br)cc2c1 (stereo not drawn) [Compound 101] | 92% | 100% | 100% | – | – | –
C#CC(C)(C)NC(=O)C(CC)Oc1cnc2ccc(F)cc2c1 (stereo not drawn) [Compound 47] | 0% | 20% | 70% | – | – | –
CCC(Oc1ccc2ccc(I)cc2c1)C(=O)NC(C)(C)COC (stereo not drawn) [Compound 92] | 100% | 100% | 100% | – | – | –
COCC(C)(C)NC(=O)C(OC)Oc1ccc2ccc(Br)cc2c1 (stereo not drawn) [Compound 90, 2-[(7-bromo-2-naphthalenyl)oxy]-2-methoxy-N-(2-methoxy-1,1-dimethylethyl)acetamide] | – | – | – | 100% | 100% | 100%
CCOc1ccc2ccc(OC(CC)C(=O)NC(C)(C)C)cc2c1 (stereo not drawn) [Compound 74, N-(1,1-dimethylethyl)-2-[(7-ethoxy-2-naphthalenyl)oxy]butanamide] | – | – | – | 100% | 100% | 100%
CCC(Oc1ccc2ccc(Br)cc2c1)C(=O)NC(C)(C)CF (stereo not drawn) [Compound 26, 2-[(7-bromo-2-naphthalenyl)oxy]-N-(2-fluoro-1,1-dimethylethyl)butanamide] | – | – | – | 100% | 100% | 99%
C#CC(C)(C)NC(=O)C(CC)Oc1ccc2ccc(OCCC)cc2c1 (stereo not drawn) [Compound 129] | 96% | 99% | 99% | – | – | –
C#CC(C)(C)NC(=O)C(CC)Oc1cnc2ccc(OC)cc2c1 (stereo not drawn) [Compound 147] | 0% | 99% | 99% | – | – | –
C#CC1(NC(=O)C(CC)Oc2ccc3ccc(OC)cc3c2)CCCCC1 (stereo not drawn) [Compound 85] | – | – | – | 0% | 84% | 99%
CCC(Oc1cc2cc(Br)ccc2cn1)C(=O)NC(C)(C)C (stereo not drawn) [Compound 67] | 92% | 77% | 100% | – | – | –
C#CCOc1ccc2ccc(OC(CC)C(=O)NC(C)(C)C#C)cc2c1 (stereo not drawn) [Compound 135] | 0% | 98% | 99% | – | – | –
CCC(Oc1cnc2c(Cl)cc(Cl)cc2c1)C(=O)NC(C)(C)COC (stereo not drawn) [Compound 56] | 0% | 99% | 99% | – | – | –
CCC(Oc1cnc2ccc(I)cc2c1)C(=O)NC(C)(C)COC (single isomer, unassigned) [Compound 61] | 98% | 100% | 99% | – | – | –
